In general, IC50 refers to the point on the concentration scale where inhibition reaches its midpoint.

≈ marks a conversion by molar mass, not a printed value.

The source of these data is publication PMC10432207 (Heliyon, 2023).

The target in the assay is Hyalomma scupense acetylcholinesterase (AChE). As to the kind of experiment: Ellman assay, absorbance at […] nm. The class given is biochemical. Particulars: acetylthiocholine iodide, DTNB, 10 min, 37 °C.

As for `C=CCc1ccc(O)c(OC)c1` [eugenol], the “IC50” value was 178 µg/mL (≈ 1080 µM).

Turning to `COc1ccc2c3c1O[C@H]1C[C@@H](O)C=C[C@@]31CCN(C)C2` [galantamine], for the setting “positive control”, the half-inhibitory concentration (IC50) turned out to be 97 µg/mL (≈ 338 µM).
